These are literature values, as cited in patent publication US20220175695A1, “FORTIFICANT COMPOSITION” (Conopco, Inc., d/b/a UNILEVER, priority 2019, published 2022).

For this data set the following is noted: without the composition.

In the case of Vitamin A, the “time Vitamin A is stable in the presence of water” value was under 4 h.
